Here are results for seven compounds from patent US10105357B2, “Indication of antibiotic drugs for preparation of cancer inhibition pharmaceutical composition” (LAUNX BIOMEDICAL CO., LTD., priority 2014, dated 2018).

Broadly, the viability is a read-out of living cells in per cent, often relative to untreated cells.

Holding throughout (assay type): cell-based, human
Test [1] concerns MCF7 (Mammary Gland, Adenocarcinoma). Briefly: Cell viability analysis, breast cancer MCF7. The note with it: Homo sapiens.
Test [2] deals with PC3 (p53−) (Prostate Adenocarcinoma). Briefly: Cell viability analysis, prostate cancer PC3. To be noted: Homo sapiens.
The test system of test [3] is HL-60 (Acute Promyelocytic Leukemia). Briefly: Cell viability analysis, leukemia HL-60. The note with it: Homo sapiens.
Test [4] deals with A375 (Amelanotic Melanoma). The test is described as follows: Cell viability analysis, skin cancer A375. To be noted: Homo sapiens.
Test [5] concerns MKN-45 (Gastric Adenocarcinoma). Briefly: Cell viability analysis, gastric cancer MKN-45. To be noted: Homo sapiens.
In test [6] the test system is HeLa (Cervix Adenocarcinoma). Briefly: Cell viability analysis, cervical cancer HeLa. To be noted: Homo sapiens, HeLa.
Test [7] concerns AGS (Gastric Adenocarcinoma). The test is described as follows: Cell viability analysis, gastric cancer AGS. The note with it: Homo sapiens.
The test system of test [8] is A549 (Lung Adenocarcinoma). Briefly: Cell viability analysis, lung cancer A549. To be noted: Homo sapiens.
The test system of test [9] is HI650 (Lung Adenocarcinoma). Briefly: Cell viability analysis, lung cancer HI650. The note with it: Homo sapiens.
For test [10], the system named is TSGH-8301 (Urinary Bladder Carcinoma). The test is described as follows: Cell viability analysis, bladder cancer TSGH-8301. To be noted: Homo sapiens.
For test [11], the system named is LoVo (Colorectal Adenocarcinoma). The test is described as follows: Cell viability analysis, colon cancer LoVo. To be noted: Homo sapiens, LoVo.
Test [12] relates to HepG2 (Hepatocellular Carcinoma). The test is described as follows: Cell viability analysis, hepatic cancer HepG2. The note with it: Homo sapiens.
A further test has as its system cancer cell lines. The test is described as follows: Cell viability analysis (WST-1) on cancer cell lines. The note with it: drug 10 μM, 72 hours, WST-1; Table 3. On the technique in general: Tetrazolium assays rely on reduction of a dye to a coloured formazan, in cell work by metabolically active cells.
The mark [13] stands for this setting: MCF7, 72 h, read-out: cell viability (survival rate), MCF7, drug 10 μM, 72 hours, WST-1, OD450 nm.
Where [14] appears, read: 72 h, read-out: cell viability (survival rate), PC3, drug 10 μM, 72 hours, WST-1, OD450 nm.
The mark [15] stands for this setting: HL-60, 72 h, read-out: cell viability (survival rate), HL-60, drug 10 μM, 72 hours, WST-1, OD450 nm.
The mark [16] stands for this setting: A-375, 72 h, read-out: cell viability (survival rate), A375, drug 10 μM, 72 hours, WST-1, OD450 nm.
The mark [17] stands for this setting: MKN-45, 72 h, read-out: cell viability (survival rate), MKN-45, drug 10 μM, 72 hours, WST-1, OD450 nm.
Where [18] appears, read: 72 h, read-out: cell viability (survival rate), HeLa, drug 10 μM, 72 hours, WST-1, OD450 nm.
The mark [19] stands for this setting: 72 h, read-out: cell viability (survival rate), AGS, drug 10 μM, 72 hours, WST-1, OD450 nm.
The mark [20] stands for this setting: A549, 72 h, read-out: cell viability (survival rate), A549, drug 10 μM, 72 hours, WST-1, OD450 nm.
Where [21] appears, read: NCI-H1650, 72 h, read-out: cell viability (survival rate), H1650, drug 10 μM, 72 hours, WST-1, OD450 nm.
The mark [22] stands for this setting: 72 h, read-out: cell viability (survival rate), TSGH, drug 10 μM, 72 hours, WST-1, OD450 nm.
The mark [23] stands for this setting: 72 h, read-out: cell viability (survival rate), LoVo, drug 10 μM, 72 hours, WST-1, OD450 nm.
Setting [24] is: HepG2, 72 h, read-out: cell viability (survival rate), HepG2, drug 10 μM, 72 hours, WST-1, OD450 nm.
Setting [25] is: MCF7, drug 10 μM, 72 hours, WST-1, OD450 nm, read-out: cell viability (survival rate), MCF7.
[26] abbreviates: drug 10 μM, 72 hours, WST-1, OD450 nm, read-out: cell viability (survival rate), PC3.
Setting [27] is: HL-60, drug 10 μM, 72 hours, WST-1, OD450 nm, read-out: cell viability (survival rate), HL-60.
The mark [28] stands for this setting: A-375, drug 10 μM, 72 hours, WST-1, OD450 nm, read-out: cell viability (survival rate), A375.
The mark [29] stands for this setting: MKN-45, drug 10 μM, 72 hours, WST-1, OD450 nm, read-out: cell viability (survival rate), MKN-45.
The mark [30] stands for this setting: drug 10 μM, 72 hours, WST-1, OD450 nm, read-out: cell viability (survival rate), HeLa.
Setting [31] is: drug 10 μM, 72 hours, WST-1, OD450 nm, read-out: cell viability (survival rate), AGS.
[32] abbreviates: A549, drug 10 μM, 72 hours, WST-1, OD450 nm, read-out: cell viability (survival rate), A549.
Setting [33] is: NCI-H1650, drug 10 μM, 72 hours, WST-1, OD450 nm, read-out: cell viability (survival rate), H1650.
The mark [34] stands for this setting: drug 10 μM, 72 hours, WST-1, OD450 nm, read-out: cell viability (survival rate), TSGH.
[35] abbreviates: drug 10 μM, 72 hours, WST-1, OD450 nm, read-out: cell viability (survival rate), LoVo.
The mark [36] stands for this setting: HepG2, drug 10 μM, 72 hours, WST-1, OD450 nm, read-out: cell viability (survival rate), HepG2.

Structures can show the parent of a compound that is named as a salt. Where two headings read alike, the source gives them in different places.

For the compound `COc1cc(C)c(/C=C/C(C)=C/C=C/C(C)=C/C(=O)O)c(C)c1C` [Acitretin], the viability at 10 µM worked out at 119% in test [1] (MCF7, 72 h, read-out: cell viability (survival rate), MCF7); 92.5% in [2] (72 h, read-out: cell viability (survival rate), PC3); 96.7% in test [3] (HL-60, 72 h, read-out: cell viability (survival rate), HL-60); 61.4% in test [4] (A-375, 72 h, read-out: cell viability (survival rate), A375); 78.5% in test [5] (MKN-45, 72 h, read-out: cell viability (survival rate), MKN-45); 52.7% in [6] (72 h, read-out: cell viability (survival rate), HeLa). Moreover, the viability at 10 µM in test [7] (72 h, read-out: cell viability (survival rate), AGS) came to 68.1%; in [8] (A549, 72 h, read-out: cell viability (survival rate), A549), 69.1%; in [9] (NCI-H1650, 72 h, read-out: cell viability (survival rate), H1650), 43.8%; in test [10] (72 h, read-out: cell viability (survival rate), TSGH), 127%; in test [11] (72 h, read-out: cell viability (survival rate), LoVo), 83.6%; in test [12] (HepG2, 72 h, read-out: cell viability (survival rate), HepG2) it was 72.6%. In addition, the “inhibition effect on different cancer cell lines” value with cancer cell lines is recorded as “significant inhibition effect”.
Take `Nc1ccc(S(=O)(=O)Nc2nccs2)cc1` [Sulfathiazole]: the viability at 10 µM in test [1] (setting [13]) was 60.1%; in test [2] (setting [14]), 94.9%; in test [3] (setting [15]), 96.7%; in test [4] (setting [16]) it was 30.8%; in test [5] (setting [17]), 30.8%; in test [6] (setting [18]) it was 47.7%. In addition, the viability at 10 µM in [7] (setting [19]) is 54.6%; in [8] (setting [20]) it was 47.2%; in test [9] (setting [21]), 38.8%; in test [10] (setting [22]) it was 54.5%; in [11] (setting [23]), 78.1%; in test [12] (setting [24]), 65.7%. The “inhibition effect on different cancer cell lines” value in the test on cancer cell lines is “significant inhibition effect”.
`COc1ccc(O)cc1` [Mequinol]: the viability at 10 µM came to 74.4% in [1] (setting [13]); 68% in test [2] (setting [14]); 112% in test [3] (setting [15]); 63.8% in test [4] (setting [16]); 103% in test [5] (setting [17]); 87.1% in [6] (setting [18]). Moreover, the viability at 10 µM worked out at 57.2% in test [7] (setting [19]); 118% in test [8] (setting [20]); 67.5% in test [9] (setting [21]); 97% in [10] (setting [22]); 85.2% in test [11] (setting [23]); 95.6% in [12] (setting [24]). For the same compound, in the test with cancer cell lines, the “inhibition effect on different cancer cell lines” value was “significant inhibition effect”.
In the case of `CC(C)OC(=O)OCOP(=O)(CO[C@H](C)Cn1cnc2c(N)ncnc21)OCOC(=O)OC(C)C` [Tenofovir Disoproxil Fumarate], the viability at 10 µM in test [1] (setting [25]) was determined as 68.7%; in test [2] (setting [26]) it was 66.9%; in test [3] (setting [27]), 93.4%; in test [4] (setting [28]), 67.1%; in test [5] (setting [29]), 71.6%; in test [6] (setting [30]), 85.7%. Also, the viability at 10 µM is 54.7% in [7] (setting [31]); 47% in test [8] (setting [32]); 50.9% in test [9] (setting [33]); 88.2% in test [10] (setting [34]); 75.8% in test [11] (setting [35]); 93.7% in [12] (setting [36]). Further, the “inhibition effect on different cancer cell lines” value in the test with cancer cell lines was “significant inhibition effect”.
For `Oc1c(Cl)cc(Cl)c2cccnc12` [Chloroxine], the viability at 10 µM in test [1] (setting [13]) came out at 68.7%; in test [2] (setting [14]), 87.2%; in test [3] (setting [15]) it was 50.5%; in test [4] (setting [16]), 72.5%; in [5] (setting [17]) it was 52.7%; in [6] (setting [18]), 71.7%. Further, the viability at 10 µM is 31.1% in [7] (setting [19]); 120% in test [8] (setting [20]); 77.1% in test [9] (setting [21]); 62.7% in test [10] (setting [22]); 85.5% in test [11] (setting [23]); 93.9% in [12] (setting [24]). Moreover, the “inhibition effect on different cancer cell lines” value in the test on cancer cell lines is given as “significant inhibition effect”.
With `Cc1cc(=O)n(-c2ccccc2)n1C` [Antipyrine], the viability at 10 µM in test [1] (setting [25]) was 61.3%; in test [2] (setting [26]), 76.8%; in [3] (setting [27]), 102%; in test [4] (setting [28]) it was 77.9%; in test [5] (setting [29]), 109%; in test [6] (setting [30]) it was 76.8%. Besides, the viability at 10 µM was 109% in test [7] (setting [31]); 76.4% in test [8] (setting [32]); 57.3% in test [9] (setting [33]); 90.1% in test [10] (setting [34]); 97.1% in test [11] (setting [35]); 105% in test [12] (setting [36]). Also, the “inhibition effect on different cancer cell lines” value with cancer cell lines is given as “significant inhibition effect”.
Turning to `COc1cnc(NS(=O)(=O)c2ccc(N)cc2)nc1` [Sulfameter (Bayrena), Sulfameter], the viability at 10 µM turned out to be 51.7% in test [1] (MCF7, 72 h, drug 10 μM, 72 hours, WST-1, OD450 nm, read-out: cell viability (survival rate), MCF7); 90.2% in test [2] (72 h, drug 10 μM, 72 hours, WST-1, OD450 nm, read-out: cell viability (survival rate), PC3); 110% in [3] (HL-60, 72 h, drug 10 μM, 72 hours, WST-1, OD450 nm, read-out: cell viability (survival rate), HL-60); 89.2% in [4] (A-375, 72 h, drug 10 μM, 72 hours, WST-1, OD450 nm, read-out: cell viability (survival rate), A375); 58.6% in [5] (MKN-45, 72 h, drug 10 μM, 72 hours, WST-1, OD450 nm, read-out: cell viability (survival rate), MKN-45); 78.4% in [6] (72 h, drug 10 μM, 72 hours, WST-1, OD450 nm, read-out: cell viability (survival rate), HeLa). Also, the viability at 10 µM in test [7] (72 h, drug 10 μM, 72 hours, WST-1, OD450 nm, read-out: cell viability (survival rate), AGS) was determined as 67.4%; in test [8] (A549, 72 h, drug 10 μM, 72 hours, WST-1, OD450 nm, read-out: cell viability (survival rate), A549), 59%; in [9] (NCI-H1650, 72 h, drug 10 μM, 72 hours, WST-1, OD450 nm, read-out: cell viability (survival rate), H1650) it was 84.8%; in test [10] (72 h, drug 10 μM, 72 hours, WST-1, OD450 nm, read-out: cell viability (survival rate), TSGH) it was 78.6%; in test [11] (setting [23]) it was 89.9%; in test [12] (HepG2, 72 h, drug 10 μM, 72 hours, WST-1, OD450 nm, read-out: cell viability (survival rate), HepG2), 95.5%. For the same compound, the “inhibition effect on different cancer cell lines” value in the test on cancer cell lines is “significant inhibition effect”.
